Experimental data from the Deep4Chem optical property database.
Several values for one entry are separate records, joined by “and”; a condition that tells them apart may be missing. Equal entries are not always repeated. One block for each compound: values may come before it.

Test: solvent given as SMILES

SMILES: Cc1cc(C#Cc2ccccc2)c2ccc3c(C#Cc4ccccc4)cc(C#Cc4ccccc4)c4ccc1c2c43
fluorescence lifetime (in CS(C)=O): 1.89 ns
fluorescence lifetime (in ClC(Cl)(Cl)Cl): 1.57 ns

SMILES: N#Cc1cc(N2c3ccccc3Oc3ccccc32)c(N2c3ccccc3Oc3ccccc32)cc1C#N
fluorescence lifetime (in c1ccc2c(c1)c1ccccc1n2-c1ccc(-c2ccc(-n3c4ccccc4c4ccccc43)cc2)cc1): 20 ns

SMILES: COC(=O)C(Cc1ccc2oc(-c3ccc(N(C)C)cc3)nc2c1)NC(=O)OC(C)(C)C (stereo unspecified)
fluorescence lifetime (in C1CCCCC1): 1.02 ns
fluorescence lifetime (in C1CCOC1): 1.21 ns
fluorescence lifetime (in C1COCCO1): 1.21 ns
fluorescence lifetime (in CC1CCCO1): 1.15 ns
fluorescence lifetime (in CC1COC(=O)O1): 1.41 ns
fluorescence lifetime (in CC#N): 1.32 ns
fluorescence lifetime (in CC(C)=O): 1.26 ns
fluorescence lifetime (in CC(C)CC(C)(C)C): 1.02 ns
fluorescence lifetime (in CC(C)CO): 1.29 ns
fluorescence lifetime (in CC(C)O): 1.3 ns
fluorescence lifetime (in CC(C)OC(C)C): 1.2 ns
fluorescence lifetime (in CC(O)CO): 1.32 ns
fluorescence lifetime (in CCC(C)CC): 1 ns
fluorescence lifetime (in CCCCC): 1.12 ns
fluorescence lifetime (in CCCCCC): 1.04 ns
fluorescence lifetime (in CCCCCCCCC): 1.08 ns
fluorescence lifetime (in CCCCCCCCCC): 1.09 ns
fluorescence lifetime (in CCCCCCCO): 1.3 ns
fluorescence lifetime (in CCCCCCO): 1.32 ns
fluorescence lifetime (in CCCCCO): 1.25 ns
fluorescence lifetime (in CCCCO): 1.29 ns
fluorescence lifetime (in CCO): 1.35 ns
fluorescence lifetime (in CCOC(C)=O): 1.19 ns
fluorescence lifetime (in CCOCC): 1.24 ns
fluorescence lifetime (in CN(C)C=O): 1.28 ns
fluorescence lifetime (in CO): 1.26 ns
fluorescence lifetime (in COCCOC): 0.88 ns
fluorescence lifetime (in CS(C)=O): 1.26 ns
fluorescence lifetime (in Cc1ccccc1): 1.04 ns
fluorescence lifetime (in Cc1ccccc1C): 1.07 ns
fluorescence lifetime (in ClC(Cl)Cl): 0.79 ns
fluorescence lifetime (in ClCCl): 1.23 ns
fluorescence lifetime (in NC=O): 1.14 ns
fluorescence lifetime (in OC1CCCCC1): 1.28 ns
fluorescence lifetime (in OCCO): 1.13 ns
fluorescence lifetime (in c1ccccc1): 1.08 ns

SMILES: COc1ccc(-c2cc(-c3ccc(C)cc3)nc3c(C#N)c(N4CCCC4)nc(N)c23)cc1
fluorescence lifetime (in CC#N): 11.7 ns
fluorescence lifetime (in CC(C)=O): 11.3 ns
fluorescence lifetime (in CC(C)O): 11.7 ns
fluorescence lifetime (in CO): 10.3 ns
fluorescence lifetime (in ClC(Cl)Cl): 13.1 ns
fluorescence lifetime (in ClCCl): 13.3 ns
fluorescence lifetime (in c1ccccc1): 12 ns

SMILES: CCCCCCCCN1c2ccccc2Sc2cc(/C=C/c3ccc(N(c4ccc(/C=C/c5ccc6c(c5)Sc5ccccc5N6CCCCCCCC)cc4)c4ccc(/C=C/c5ccc(/C=C/c6ccc(N(c7ccc(/C=C/c8ccc(N(c9ccccc9)c9ccccc9)cc8)cc7)c7ccc(/C=C/c8ccc(N(c9ccccc9)c9ccccc9)cc8)cc7)cc6)c6nsnc56)cc4)cc3)ccc21
fluorescence lifetime (in C1CCOC1): 1.76 ns
fluorescence lifetime (in CCOC(C)=O): 1.79 ns
fluorescence lifetime (in Cc1ccccc1): 3.49 ns
fluorescence lifetime (in ClC(Cl)Cl): 2.38 ns
fluorescence lifetime (in ClCCl): 1.75 ns

SMILES: CNc1cccc2c1-c1ccccc1C2=O
fluorescence lifetime (in C1CCCCC1): 8.8 ns
fluorescence lifetime (in CC#N): 2.2 ns
fluorescence lifetime (in c1ccccc1): 8.4 ns

SMILES: c1ccc(N2c3ccc4ccccc4c3-c3c4ccccc4nc[n+]3[B-]2(c2ccccc2)c2ccccc2)cc1
fluorescence lifetime (in C1CCC2CCCCC2C1): 3.42 ns
fluorescence lifetime (in C1CCCCC1): 3.43 ns
fluorescence lifetime (in C1CCOC1): 0.54 ns
fluorescence lifetime (in CC#N): 0.21 ns
fluorescence lifetime (in CC(C)=O): 0.21 ns
fluorescence lifetime (in CCCCCC): 3.4 ns
fluorescence lifetime (in CCOC(C)=O): 0.57 ns
fluorescence lifetime (in Cc1ccccc1): 1.56 ns
fluorescence lifetime (in ClC(Cl)Cl): 0.49 ns

SMILES: c1ccc(-c2nc(-c3ccccc3)nc(-c3cc(-n4c5ccccc5c5ncccc54)c(-n4c5ccccc5c5ccccc54)c(-n4c5ccccc5c5ncccc54)c3)n2)cc1
fluorescence lifetime (in O=P(c1ccccc1)(c1ccccc1)c1ccccc1Oc1ccccc1P(=O)(c1ccccc1)c1ccccc1): 6 ns

SMILES: COc1ccc2c3cccc4c(OC)ccc(c5cccc1c52)c43
fluorescence lifetime (in C1CCOC1): 3.95 ns
fluorescence lifetime (in Cc1ccccc1): 3.6 ns
fluorescence lifetime (in ClC(Cl)(Cl)Cl): 3.65 ns
fluorescence lifetime (in ClC(Cl)Cl): 3.89 ns
fluorescence lifetime (in ClCCl): 4.33 ns
fluorescence lifetime (in c1ccncc1): 4.02 ns

SMILES: COc1ccc(-c2nc(-c3ccc(-c4nc(-c5ccc(OC)cc5)c(-c5ccc(OC)cc5)[nH]4)cc3)[nH]c2-c2ccc(OC)cc2)cc1
fluorescence lifetime (in CC#N): 1.1 ns and 1.24 ns

SMILES: O=C1CCCC2=C1CC1=C(CCCC1=O)N2NC(=O)c1ccc(O)cc1
fluorescence lifetime (in CC#N): 6.2 ns
fluorescence lifetime (in CC(C)=O): 5.6 ns
fluorescence lifetime (in CCCCCO): 6.5 ns
fluorescence lifetime (in CO): 4.8 ns
fluorescence lifetime (in ClC(Cl)Cl): 8.2 ns
fluorescence lifetime (in ClCCl): 5.4 ns

SMILES: Fc1ccc(-[c+]2c3ccccc3oc3ccccc32)cc1
fluorescence lifetime (in CC#N): 18.8 ns

SMILES: Cc1cc(C)c(B(c2c(C)cc(C)cc2C)c2ccc3ccc4cccc5ccc2c3c45)c(C)c1
fluorescence lifetime (in Cc1ccccc1): 3 ns

SMILES: CCN(CC)c1ccc2cc(/C=C/C(=C(C#N)C#N)c3ccc(N(c4ccccc4)c4ccccc4)cc3)c(=O)oc2c1
fluorescence lifetime (in CC(C)=O): 0.59 ns
fluorescence lifetime (in CCOC(C)=O): 1.31 ns
fluorescence lifetime (in CN(C)C=O): 0.33 ns
fluorescence lifetime (in CS(C)=O): 0.33 ns
fluorescence lifetime (in Cc1ccccc1): 0.84 ns
fluorescence lifetime (in ClCCl): 2.88 ns

SMILES: COc1ccc(-c2c3cc4ccccc4cc3c(-c3ccc(OC)cc3)c3cc4ccccc4cc23)cc1
fluorescence lifetime (in ClCCl): 7.8 ns

SMILES: N#CC(C#N)=C(/C=C/c1ccc(N(c2ccccc2)c2ccccc2)cc1)c1ccc2c3c(cccc13)CC2
fluorescence lifetime (in C1CCOC1): 3.5 ns
fluorescence lifetime (in CC#N): 1.22 ns
fluorescence lifetime (in CC(C)=O): 1.04 ns
fluorescence lifetime (in CCOC(C)=O): 3.01 ns
fluorescence lifetime (in CN(C)C=O): 1.02 ns
fluorescence lifetime (in CO): 2.1 ns
fluorescence lifetime (in Cc1ccccc1): 2.26 ns
fluorescence lifetime (in ClC(Cl)Cl): 6.54 ns

SMILES: CCC1(CC)c2cc(-c3cccs3)ccc2-c2c1c1c(c3c2C(CC)(CC)c2cc(-c4cccs4)ccc2-3)C(CC)(CC)c2cc(-c3cccs3)ccc2-1
fluorescence lifetime (in C1CCOC1): 2.1 ns

SMILES: COC(=O)/C(C#N)=c1\s/c(=c2/s/c(=C(/C#N)C(=O)OC)c3cc(-c4ccc(F)cc4)sc23)c2sc(-c3ccc(F)cc3)cc12
fluorescence lifetime (in Cc1ccccc1): 2.9 ns

SMILES: COc1ccc2c(=O)c3c([nH]c2c1)-c1ccccc1NC3(C)C
fluorescence lifetime (in C1CCOC1): 8.25 ns
fluorescence lifetime (in CC#N): 9.16 ns
fluorescence lifetime (in CCCCO): 10.2 ns
fluorescence lifetime (in CCCO): 10.1 ns
fluorescence lifetime (in CCO): 9.74 ns
fluorescence lifetime (in CCOC(C)=O): 8.04 ns
fluorescence lifetime (in CN(C)C=O): 10.5 ns
fluorescence lifetime (in CO): 9.35 ns
fluorescence lifetime (in CS(C)=O): 11.4 ns
fluorescence lifetime (in Cc1ccccc1): 7.24 ns
fluorescence lifetime (in ClC(Cl)(Cl)Cl): 5.08 ns
fluorescence lifetime (in ClCCl): 9.46 ns
fluorescence lifetime (in O): 7.42 ns
fluorescence lifetime (in c1ccccc1): 7.52 ns

SMILES: FC(F)(F)c1cc2n(n1)[B-]1(c3ccccc3Oc3ccccc31)[n+]1ccc3ccccc3c1-2
fluorescence lifetime (in C1CCCCC1): 1.79 ns
fluorescence lifetime (in Cc1ccccc1): 1.85 ns
fluorescence lifetime (in ClCCl): 2.45 ns

Continued, values first:

fluorescence lifetime (in C1CCCCC1): 4.1 ns
fluorescence lifetime (in CC#N): 4.5 ns
fluorescence lifetime (in ClCCl): 5 ns
SMILES: c1ccc2c(-c3ccc4sc5ccccc5c4c3)c3ccccc3cc2c1

fluorescence lifetime (in ClC(Cl)Cl): 4.1 ns
SMILES: Cc1ccc(/C2=c3\cc/c(o3)=C(\c3ccc(C)cc3)c3ccc([nH]3)-c3ccc4n3[B-](F)(F)[N+]3=C(C=CC3=C4c3ccco3)c3ccc2[nH]3)cc1

fluorescence lifetime (in CC#N): 0.55 ns
SMILES: c1cc2c3c(cccc3c1)C(N1CCOCCOCCOCCOCC1)=N2

fluorescence lifetime (in CCOC(C)=O): 3.5 ns
fluorescence lifetime (in CS(C)=O): 4 ns
SMILES: COc1nc(Cl)nc(Nc2ccc3c4cccc5cccc(c6cccc2c63)c54)n1

fluorescence lifetime (in C1CCOC1): 1.29 ns
fluorescence lifetime (in CC#N): 1.29 ns
fluorescence lifetime (in CN(C)C=O): 1.38 ns
fluorescence lifetime (in ClC(Cl)Cl): 1.36 ns
fluorescence lifetime (in c1ccccc1): 1.45 ns
SMILES: COc1ccc(C#Cc2ccc(C#Cc3ccc(C#Cc4ccccc4C#N)cc3C#N)cc2C#N)cc1

fluorescence lifetime (in O): 0.74 ns
SMILES: Cc1cn(CCCn2cc(C)c(=O)[nH]c2=O)c(=O)nc1-n1cncn1

fluorescence lifetime (in ClC(Cl)Cl): 11.4 ns
SMILES: CCCCCCN1C(=O)c2cccc3cc(/N=C\c4cn(C)c5ccccc45)cc(c23)C1=O

fluorescence lifetime (in CC#N): 8.14 ns
SMILES: Oc1ccc2cc(C3(O)C4CC5CC(C4)CC3C5)ccc2c1 (stereo unspecified)

fluorescence lifetime (in CC#N): 1.23 ns
SMILES: COc1ccc2cc(/C=C/c3ccc([N+](=O)[O-])cc3)c(=O)oc2c1

fluorescence lifetime (in C1CCOC1): 1.13 ns
SMILES: CC1=[N+]2C(=C(c3ccc(C(=C(c4ccccc4)c4ccccc4)c4ccccc4)cc3)c3ccc(C)n3[B-]2(F)F)C=C1

fluorescence lifetime (in C1COCCO1): 0.45 ns
fluorescence lifetime (in CC#N): 0.49 ns
fluorescence lifetime (in CO): 0.6 ns
fluorescence lifetime (in O): 1.04 ns
SMILES: O=c1[nH]c(=O)n([C@@H]2O[C@H](CO)[C@@H](O)[C@H]2O)cc1-c1cc2ccccc2s1

fluorescence lifetime (in CC1CCCCC1): 3.2 ns
fluorescence lifetime (in CC#N): 3 ns
SMILES: C(=C\c1c2ccccc2cc2ccccc12)/c1cnc2ccccc2c1

fluorescence lifetime (in C1CCOC1): 8.2 ns
SMILES: c1ccc(/C(=C(\c2ccccc2)c2cc(-c3ccc(-c4ccccc4)cc3)ccc2-c2ccc(-c3ccccc3)cc2)c2cc(-c3ccc(-c4ccccc4)cc3)ccc2-c2ccc(-c3ccccc3)cc2)cc1

fluorescence lifetime (in ClCCl): 5.6 ns
SMILES: COc1ccc(C(=O)c2c(C)c3ccc4cccc5c6cccc7ccc2c(c76)c3c45)cc1

fluorescence lifetime (in ClC(Cl)Cl): 1.2 ns
SMILES: C(#Cc1ccccc1)C(C#Cc1ccccc1)=Cc1ccc(C=C(C#Cc2ccccc2)C#Cc2ccccc2)cc1

fluorescence lifetime (in ClCCl): 3.36 ns
SMILES: COC(=O)c1[nH]c(-c2ccccc2)c2nnc3c4ccccc4oc3c12

fluorescence lifetime (in CC#N): 1.24 ns
SMILES: Cn1c(-c2ccc(-c3nc(-c4ccccc4)c(-c4ccccc4)n3C)s2)nc(-c2ccccc2)c1-c1ccccc1

fluorescence lifetime (in ClCCl): 10.1 ns
SMILES: CC(C)(C)c1ccc(-c2nc3c4ccc(-c5ccccc5)cc4c4cc(-c5ccccc5)ccc4c3n2-c2ccc(C(C)(C)C)cc2)cc1

fluorescence lifetime (in CC#N): 3.68 ns
SMILES: C=Cc1cc2cc3c(cc2oc1=O)OCO3

fluorescence lifetime (in CN(C)C=O): 3.1 ns
SMILES: O=C1NC(=O)c2ccc3c4ccc5c6c(ccc(c7ccc1c2c73)c64)C(=O)N(c1ccc(Cl)cc1)C5=O

fluorescence lifetime (in ClCCl): 22.3 ns
SMILES: CC(C)(C)C#Cc1cc2c(C#CC(C)(C)C)c(C#CC(C)(C)C)c3cc(C#CC(C)(C)C)cc4c(C#CC(C)(C)C)c(C#CC(C)(C)C)c(c1)c2c34

fluorescence lifetime (in C1CCCCC1): 3.8 ns
SMILES: COc1ccc(OC)cc1

fluorescence lifetime (in ClCCl): 2.98 ns
SMILES: CC(C)(C)c1ccc(-c2c3cccc4c(-c5ccccc5)cc5c(-c6ccc(C(C)(C)C)cc6)c6cccc7c(-c8ccccc8)cc2c(c76)c5c43)cc1

fluorescence lifetime (in C1CCCCC1): 4.3 ns
SMILES: CCCCc1cc2cccc[n+]2[b-]2c(-c3cccc4[b-]3[n+]3ccccc3cc4CCCC)cccc21

fluorescence lifetime (in C1CCCCC1): 2.5 ns
SMILES: Cc1ccccc1-c1ccccc1C

fluorescence lifetime (in ClC(Cl)Cl): 17 ns
SMILES: CCC1=C(C)C2C(c3ccc(-c4ccc(-c5nc6c7ccccc7c7ccccc7c6n5-c5ccc(C(C)(C)C)cc5)cc4)cc3)c3c(C)c(CC)c(C)n3[B-](F)(F)[N+]2=C1C (stereo unspecified)

fluorescence lifetime (in ClCCl): 1.97 ns
SMILES: CCCCOc1ccc(-c2oc3cc4n(c3c2-c2ccc(OCCCC)cc2)[B-](F)(F)[N+]2=Cc3cc5oc(-c6ccc(OCCCC)cc6)c(-c6ccc(OCCCC)cc6)c5n3[B-](F)(F)[N+]2=C4)cc1
